Assay results published in patent US9725467B2, “Fluorinated benzenesulfonamides as inhibitors of carbonic anhydrase” (VILNIUS UNIVERSITY, priority 2012, dated 2017).

How the values were obtained:
[1] = molecular target: T1, CA XII (Homo sapiens, UniProt O43570); experiment: Fluorescent thermal shift assay (TSA), CA XII; format: binding; conditions: 37° C., pH 7.0, read-out: Dissociation constants Kd to CA XII (converted)
[2] = molecular target: T2, CA I (Homo sapiens, UniProt P00915); experiment: Fluorescent thermal shift assay (TSA), CA I; format: binding; conditions: 37° C., pH 7.0, read-out: Dissociation constants Kd to CA I (converted)
T2 sequence (P00915 whole entry): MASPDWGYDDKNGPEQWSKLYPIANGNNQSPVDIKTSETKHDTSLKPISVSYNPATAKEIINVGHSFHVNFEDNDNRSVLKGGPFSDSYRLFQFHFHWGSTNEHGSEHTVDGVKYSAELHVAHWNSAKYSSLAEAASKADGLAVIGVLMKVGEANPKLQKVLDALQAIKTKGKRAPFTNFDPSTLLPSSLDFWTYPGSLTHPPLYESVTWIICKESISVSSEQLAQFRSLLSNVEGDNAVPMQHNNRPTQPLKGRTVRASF

[3] = molecular target: T3, CA VII (Homo sapiens, UniProt P43166); experiment: Fluorescent thermal shift assay (TSA), CA VII; format: binding; conditions: 37° C., pH 7.0, read-out: Dissociation constants Kd to CA VII (converted)
T3 sequence (P43166 whole entry): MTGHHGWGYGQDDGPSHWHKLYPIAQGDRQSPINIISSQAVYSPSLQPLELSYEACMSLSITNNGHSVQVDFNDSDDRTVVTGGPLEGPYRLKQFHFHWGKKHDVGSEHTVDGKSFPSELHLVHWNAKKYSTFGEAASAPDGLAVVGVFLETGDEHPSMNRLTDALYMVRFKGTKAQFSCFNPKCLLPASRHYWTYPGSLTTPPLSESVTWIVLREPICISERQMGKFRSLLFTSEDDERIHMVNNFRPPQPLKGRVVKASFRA

[4] = molecular target: T4, CA XIII (Homo sapiens, UniProt Q8N1Q1); experiment: Fluorescent thermal shift assay (TSA), CA XIII; format: binding; conditions: 37° C., pH 7.0, read-out: Dissociation constants Kd to CA XIII
T4 sequence (Q8N1Q1 whole entry): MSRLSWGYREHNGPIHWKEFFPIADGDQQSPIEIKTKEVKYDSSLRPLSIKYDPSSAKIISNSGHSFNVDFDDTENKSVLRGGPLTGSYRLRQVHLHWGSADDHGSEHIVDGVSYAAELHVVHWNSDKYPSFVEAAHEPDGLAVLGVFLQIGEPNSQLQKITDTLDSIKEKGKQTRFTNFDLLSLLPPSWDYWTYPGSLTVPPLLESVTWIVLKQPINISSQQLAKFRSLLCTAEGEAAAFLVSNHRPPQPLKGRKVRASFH

[5] = molecular target: T5, CA II (Homo sapiens, UniProt P00918); experiment: Fluorescent thermal shift assay (TSA), CA II; format: binding; conditions: 37° C., pH 7.0, read-out: Dissociation constants Kd to CA II (converted)
[6] = molecular target: T5, CA II; experiment: CO2 hydration assay (stopped-flow); format: biochemical
[7] = molecular target: T2, CA I; experiment: Isothermal titration calorimetry (ITC), CA I; format: binding; conditions: 37° C., pH 7.0, read-out: Dissociation constants Kd to CA I
[8] = molecular target: T4, CA XIII; experiment: biochemical
[9] = molecular target: T1, CA XII; experiment: Isothermal titration calorimetry (ITC), CA XII; format: binding; conditions: 37° C., pH 7.0, read-out: Dissociation constants Kd to CA XII
[10] = molecular target: T5, CA II; experiment: biochemical
[11] = molecular target: T3, CA VII; experiment: Isothermal titration calorimetry (ITC), CA VII; format: binding; conditions: 37° C., pH 7.0, read-out: Dissociation constants Kd to CA VII

T1 sequence (O43570 30-291 limits assumed): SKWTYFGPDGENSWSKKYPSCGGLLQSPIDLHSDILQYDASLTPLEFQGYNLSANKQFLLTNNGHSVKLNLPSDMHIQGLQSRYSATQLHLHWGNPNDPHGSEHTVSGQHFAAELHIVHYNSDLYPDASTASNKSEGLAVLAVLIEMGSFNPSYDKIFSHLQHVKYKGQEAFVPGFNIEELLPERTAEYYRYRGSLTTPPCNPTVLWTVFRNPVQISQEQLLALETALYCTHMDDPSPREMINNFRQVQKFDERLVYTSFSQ

| Molecule | Kd [1] [nM] | Kd [2] [nM] | Kd [3] [nM] | Kd [4] [nM] | Kd [5] [nM] | Ki [6] [nM] | Kd [7] [nM] | Kd [8] [nM] | Kd [9] [nM] | Kd [10] [nM] | Kd [11] [nM] |
| --- | --- | --- | --- | --- | --- | --- | --- | --- | --- | --- | --- |
| 3-{[4-(aminosulfonyl)-2,3,5,6-tetrafluorophenyl]thio}-[1,2,3]thiadiazolo[3,4-a]benzimidazole [Compound 2w] | 110 | 0.4 | 13 | – | – | – | – | – | – | – | – |
| CC(C)Nc1c(F)c(SCCc2ccccc2)c(F)c(F)c1S(N)(=O)=O [Compound 3a, 2-(isopropylamino)-3,5,6-trifluoro-4-[(2-phenylethyl)thio]benzenesulfonamide] | 2900 | 3300 | 130 | 67 | 500 | – | – | – | – | – | – |
| CC(Nc1c(F)c(SCCc2ccccc2)c(F)c(F)c1S(N)(=O)=O)c1ccccc1 (stereo not shown) [Compound 3d, 2-[(1-phenylethyl)amino]-3,5,6-trifluoro-4-[(2-phenylethyl)thio]benzenesulfonamide] | 5000 | 1700 | 4000 | 40 | 3300 | – | – | – | – | – | – |
| NS(=O)(=O)c1c(F)c(F)c(SCCc2ccccc2)c(F)c1NC1CCCCC1 [Compound 3f, 2-(cyclohexylamino)-3,5,6-trifluoro-4-[(2-phenylethyl)thio]benzenesulfonamide] | 500 | 25000 | 170 | 500 | 250 | – | – | – | – | – | – |
| NS(=O)(=O)c1c(F)c(F)c(SCCc2ccccc2)c(F)c1NC1Cc2ccccc2C1 [Compound 3l, 2-(2,3-dihydro-1H-inden-2-ylamino)-3,5,6-trifluoro-4-[(2-phenylethyl)thio]benzenesulfonamide] | 1700 | 5000 | 4000 | 100 | 3300 | – | – | – | – | – | – |
| NS(=O)(=O)c1c(F)c(F)c(SCCO)c(F)c1N[C@H]1CCc2ccccc21 [Compound 4e, 2-[(1S)-2,3-dihydro-1H-inden-1-ylamino]-3,5,6-trifluoro-4-[(2-hydroxyethyl)thio]benzenesulfonamide] | 1250 | 8300 | 1100 | 33.3 | 2780 | 500 | – | – | – | – | – |
| NS(=O)(=O)c1c(F)c(F)cc(F)c1NC1CCCCCCC1 [Compound 8a, 2-(cyclooctylamino)-3,5,6-trifluorobenzenesulfonamide] | 833 | 167 | 167 | 100 | 200 | – | – | – | – | – | – |
| CNc1c(F)c(S(N)(=O)=O)c(F)c(F)c1S(=O)(=O)CCc1ccccc1 [Compound 9a, 3-(methylamino)-2,5,6-trifluoro-4-[(2-phenylethyl)sulfonyl]benzenesulfonamide] | – | 67 | 8.3 | 1.3 | – | – | – | – | – | – | – |
| NS(=O)(=O)c1c(F)c(F)c(S(=O)(=O)CCc2ccccc2)c(NCc2ccccc2)c1F [Compound 9c, 3-(benzylamino)-2,5,6-trifluoro-4-[(2-phenylethyl)sulfonyl]benzenesulfonamide] | – | 56 | 5 | 2.5 | – | – | – | – | – | – | – |
| NS(=O)(=O)c1c(F)c(F)c(S(=O)(=O)CCc2ccccc2)c(NCCc2ccccc2)c1F [Compound 9d, 3-[(2-phenylethy)amino]-2,5,6-trifluoro-4-[(2-phenylethyl)sulfonyl]benzenesulfonamide] | 33 | 500 | 4 | 6.7 | 17 | – | – | – | – | – | – |
| COc1cccc(OC)c1CNc1c(F)c(S(N)(=O)=O)c(F)c(F)c1S(=O)(=O)CCc1ccccc1 [Compound 9h, 3-[(2,6-dimethoxybenzyl)amino]-2,5,6-trifluoro-4-[(2-phenylethyl)sulfonyl]benzenesulfonamide] | 167 | 58.8 | 667 | 8.3 | 22.2 | – | – | – | – | – | – |
| COc1ccc(CNc2c(F)c(S(N)(=O)=O)c(F)c(F)c2S(=O)(=O)CCc2ccccc2)cc1OC [Compound 9i, 3-[(3,4-dimethoxybenzyl)amino]-2,5,6-trifluoro-4-[(2-phenylethyl)sulfonyl]benzenesulfonamide] | 250 | 213 | 6.7 | 3.3 | 22.2 | – | – | – | – | – | – |
| NS(=O)(=O)c1c(F)c(F)c(S(=O)(=O)CCc2ccccc2)c(NC23CC4CC(CC(C4)C2)C3)c1F [Compound 9j, 3-(1-adamantylamino)-2,5,6-trifluoro-4-[(2-phenylethyl)sulfonyl]benzenesulfonamide] | 17 | 500 | 5 | 5.6 | 50 | – | – | – | – | – | – |
| NS(=O)(=O)c1c(F)c(F)c(S(=O)(=O)CCc2ccccc2)c(N[C@@H](c2ccccc2)[C@H](O)c2ccccc2)c1F [Compound 9n, 3-{[(1S,2R)-2-hydroxy-1,2-diphenylethyl]amino}-2,5,6-trifluoro-4-[(2-phenylethyl)sulfonyl]benzenesulfonamide] | 250 | 1700 | 10 | 5.6 | 33 | – | – | – | – | – | – |
| NS(=O)(=O)c1c(F)c(F)c(S(=O)(=O)CCc2ccccc2)c(N[C@H](c2ccccc2)[C@@H](O)c2ccccc2)c1F [Compound 9o, 3-{[(1R,2S)-2-hydroxy-1,2-diphenylethyl]amino}-2,5,6-trifluoro-4-[(2-phenylethyl)sulfonyl]benzenesulfonamide] | 400 | 770 | 40 | 6.7 | 91 | – | – | – | – | – | – |
| NS(=O)(=O)c1c(F)c(F)c(S(=O)(=O)CCO)c(NCc2ccccc2)c1F [Compound 10a, 3-(benzylamino)-2,5,6-trifluoro-4-[(2-hydroxyethyl)sulfonyl]benzenesulfonamide] | – | 200 | 130 | 14 | – | – | 130 | 45.2 | 12.2 | 139 | 405 |
| COc1cccc(OC)c1CNc1c(F)c(S(N)(=O)=O)c(F)c(F)c1S(=O)(=O)CCO [Compound 10d, 3-[(2,6-dimethoxybenzyl)amino]-2,5,6-trifluoro-4-[(2-hydroxyethyl)sulfonyl]benzenesulfonamide] | 66.7 | 200 | 40 | 25 | 16.7 | – | – | – | – | – | – |
| COc1ccc(CNc2c(F)c(S(N)(=O)=O)c(F)c(F)c2S(=O)(=O)CCO)cc1OC [Compound 10e, 3-[(3,4-dimethoxybenzyl)amino]-2,5,6-trifluoro-4-[(2-hydroxyethyl)sulfonyl]benzenesulfonamide] | 66.7 | 83.3 | 14.3 | 4.3 | 25 | – | – | – | – | – | – |
